We go through 20 compounds from patent US20050267073A1, “Triheterocyclic compounds, compositions, and methods for treating cancer or viral diseases” (priority 2004, published 2005).

Where a name gives a salt, the structure may show the parent alone.

Series [1] is described as follows: Shelf stability (precipitation) of formulation. Format: physicochemical. As to conditions: 0.6 mg/mL in 9.6% polyethylene glycol 300, 0.4% polysorbate 20 and 5% dextrose.
Experimental: To determine whether a compound is soluble in a solution, the solution was filtered on 0.2 μM polytetrafluoroethylene filters (Whatman Inc. Clifton, N.J., USA) and the compound concentration in the filtrate was measured by LC/MS and compared to the expected concentration.
Series [2] has as its system human prostatic adenocarcinoma cancer PC3 cells. In words: Growth of PC3 prostatic tumors in SCID mice. Format: in vivo. Particulars: 5 consecutive intravenous injections; Compound 1 Mesylate Salt 4.84 μMoles/Kg; Compound 66 4.84 or 14.51 μMoles/Kg; FIG. 6. The method, then:
The human prostatic adenocarcinoma cancer PC3 cells were purchased from the American Type Culture Collection (ATCC). These cells were confirmed to be free of mycoplasma infection. Cells were maintained in the Roswell Park Memorial Institute (RPMI), supplemented with 10% inactivated fetal bovine serum and 1% penicillin-streptomycin-L-Glutamine, under 5% carbon dioxide (CO2) at 37° C. For prostatic-tumor induction, cells were grown lower than 70% confluence in complete medium and then collected with trypsin (Bio Whittaker, Rockland, Me., USA). Cells were then centrifuged and washed 2 times in phosphate buffer solution (PBS) and resuspended in PBS at 1.5×10^6 cells/0.1 mL. PC3 cells were then transplanted subcutaneously into the flank of SCID mice (Charles River Laboratories, Wilmington, Mass., USA), as a suspension of tumor cells (1.5×10^6 cells in 100 μL PBS), under a laminar airflow hood. Eleven (11) days later, the size of each tumor was measured. […] Relative tumor size and volume was calculated as follows: length (cm)×[width (cm)]^2/2. […]

Series [3] is classed as in vivo, CB17 SCID/SCID mice. How it is done:
Treatments started on day fourteen after C33A cells transplantation. […]. The negative control group was treated with vehicle alone. […].
Observation continued for 40 days after initial tumor implantation.

The test system of series [4] is H1299 human non-small cell lung cancer cells. The series can be described thus: Cell viability by cellular ATP levels (ViaLight), H1299 cells. Format: cell-based. Particulars: Homo sapiens, NCI-H1299; H1299; cellular ATP levels as described in Example 2; read-out: IC50 (μM) H1299, Effect on Cancer Cells Viability. From the text: (§1) […]. […] […]. The total dimethyl sulfoxide on the cells was 1%. […] […].
(§2) As depicted in Table 4, these compounds were efficient in decreasing cellular ATP levels in HI 299 and C33A cancer cell lines. Nevertheless, these compounds are believed to have utility in the in vivo methods of the invention, i.e., treatment and prevention of cancer and viral infections, respectively. It should be noted that, although this cell-based assay is believed to be indicative of anti-oncogenic activity in vivo, it is not the only useful assay for evaluating the anti-oncogenic activity of Triheterocyclic Compounds of the invention. In addition, the anti-viral and other biological activity of compounds of the invention can be determined and evaluated in other assay systems known to the skilled artisan.

Series [5] has as its system C33A cervical carcinoma cells. In words: cells. Format: cell-based. Particulars: Homo sapiens, C-33-A; C33A; cellular ATP levels as described in Example 2; read-out: IC50 (μM) C33A, Effect on Cancer Cells Viability.
From the text: as §1, §2

In the case of `COC1=CC(c2cc3ccccc3[nH]2)=N/C1=C\c1[nH]c(C)cc1C` [Compound 1 Mesylate Salt], the precipitation of formulation result in series [1] was “no evidence of precipitation 72 hours after its preparation”. For the same compound, in series [2], the “growth of prostatic tumors in mice” value is given as “significantly reduce the growth of prostatic tumors”.
Take `N.N.[Cl][Pt][Cl]` [cisplatin, reference compound]: in series [3] (cisplatin 4 mg/kg IP, days 29 and 32), the deaths entry was “Two mice died”. In series [3] (day 29, cisplatin 4 mg/kg IP once every 3 days for five times), the weight loss worked out at 28%.
In the case of `Cc1cc(C)c(/C=C2\N=C(c3cc4c(O)cccc4[nH]3)C=C2OC(C)C)[nH]1` [Compound 57, 2-[5-(3,5-Dimethyl-1H-pyrrol-2-ylmethylene)-4-isopropoxy-5H-pyrrol-2-yl]-1H-indol-4-ol], the IC50 in series [4] was 5.9 µM; in series [5] it was 3.75 µM.
The like results for `COC1=CC(c2cc3ccccc3n2C(=O)OC(C)(C)C)=N/C1=C\c1[nH]c(C)cc1C` [Compound 49, 2-[5-(3,5-Dimethyl-1H-pyrrol-2-ylmethylene)-4-methoxy-5H-pyrrol-2-yl]-indole-1-carboxylic acid tert-butyl ester] were, in that order, 3 µM and 2 µM.
The like results for `COC1=CC(c2cc3ccccc3n2Cc2ccc(O)cc2)=N/C1=C\c1[nH]c(C)cc1C` [Compound 58, 4-{2-(5-(3,5-Dimethyl-1H-pyrrol-2-ylmethylene)-4-methoxy-5H-pyrrol-2-yl]-indol-1-ylmethyl}-phenol] were, in that order, 1.97 µM and 1.32 µM.
The like results for `COC1=CC(c2[nH]c3ccccc3c2C(=O)c2ccc(-c3ccccn3)s2)=N/C1=C\c1[nH]c(C)cc1C` [Compound 22, {2-[5-(3,5-Dimethyl-1H-pyrrol-2-ylmethylene)-4-methoxy-5H-pyrrol-2-yl]-1H-indol-3-yl}-(5-pyridin-2-yl-thiophen-2-yl)-methanone] were, in that order, 7.19 µM and 6.46 µM.
On to `COC1=CC(c2cc3c(OC(=O)OC(C)(C)C)cccc3[nH]2)=N/C1=C\c1[nH]c(C)cc1C` [Compound 36, Carbonic acid tert-butyl ester 2-[5-(3,5-dimethyl-1H-pyrrol-2-ylmethylene)-4-methoxy-5H-pyrrol-2-yl]-1H-indol-4-yl ester], for which the results for the half-inhibitory concentration (IC50) in series [4] and in series [5] were 0.494 µM and 0.583 µM, respectively.
The like results for `COC1=C(CO)C(c2[nH]c3ccccc3c2CNCCO)=N/C1=C\c1[nH]c(C)cc1C` [Compound 9, 2-({2-[5-(3,5-Dimethyl-1H-pyrrol-2-ylmethylene)-3-hydroxymethyl-4-methoxy-5H-pyrrol-2-yl]-1H-indol-3-ylmethyl}-amino)-ethanol] were, in that order, 4.43 µM and 2.21 µM.
The like results for `COC1=CC(c2cc3ccccc3n2CCOS(=O)(=O)O)=N/C1=C\c1[nH]c(C)cc1C` [Compound 65, Sodium salt of Sulfuric acid mono-(2-{2-[5-(3,5-dimethyl-1H-pyrrol-2-ylmethylene)-4-methoxy-5H-pyrrol-2-yl]-indol-1-yl}-ethyl) ester] were, in that order, 7.89 µM and 5.97 µM.
The like results for `COC1=CC(c2cc3ccccc3[nH]2)=N/C1=C\c1[nH]c(C)c(CCCO)c1C` [Compound 41, 3-{5-[5-(1H-indol-2-yl)-3-methoxy-pyrrol-2-ylidenemethyl]-2,4-dimethyl-1H-pyrrol-3-yl}-propan-1-ol] were, in that order, 3.35 µM and 1.79 µM.
Consider `Cc1cc(C)c(/C=C2/N=C(c3cc4cc(F)ccc4[nH]3)C=C2OC(C)C)[nH]1` [Compound 42, 2-[5-(3,5-Dimethyl-1H-pyrrol-2-ylmeythylene)-4-isopropoxy-5H-pyrrol-2-yl]-5-fluoro-1H-indole], for which the half-maximal inhibitory concentration (IC50) is 0.458 µM in series [4] and 0.358 µM in series [5].
The like results for `COC1=CC(c2cc3ccccc3n2C(=O)Nc2ccc(OCc3ccccc3)cc2)=N/C1=C\c1[nH]c(C)cc1C` [Compound 54, 2-[5-(3,5-Dimethyl-1H-pyrrol-2-ylmethylene)-4-methoxy-5H-pyrrol-2-yl]-indole-1-carboxylic acid (4-benzyloxy-phenyl)-amide] were, in that order, 0.187 µM and 0.145 µM.
The like results for `COc1cccc(COC2=CC(c3cc4ccccc4[nH]3)=N/C2=C\c2[nH]c(C)cc2C)c1` [Compound 51, 2-[5-(3,5-Dimethyl-1H-pyrrol-2-ylmethylene)-4-(3-methoxy-benzyloxy)-5H-pyrrol-2-yl]-1H-indole] were, in that order, 0.202 µM and 0.165 µM.
The like results for `COC1=CC(c2cc3ccccc3n2C(=O)c2ccccc2)=N/C1=C/c1[nH]c(C)cc1C` [Compound 43, {2-[5-(3,5-Dimethyl-1H-pyrrol-2-ylmethylene)-4-methoxy-5H-pyrrol-2-yl]-indol-1-yl}-phenyl-methanone] were, in that order, 0.298 µM and 0.196 µM.
For `COC1=CC(c2cc3cc(OC)c(OC)cc3n2C(=O)OC(C)(C)C)=N/C1=C\c1[nH]c(C)cc1C` [Compound 5, 2-[5-(3,5-Dimethyl-1H-pyrrol-2-ylmethylene)-4-methoxy-5H-pyrrol-2-yl]-5,6-dimethoxy-indole-1-carboxylic acid tert-butyl ester], the IC50 was found to be 2.26 µM in series [4] and 2.24 µM in series [5].
The like results for `COC1=CC(c2cc3ccccc3n2C(=O)OCC(O)CO)=N/C1=C\c1[nH]c(C)cc1C` (stereo not shown) [Compound 44, 2-[5-(3,5-Dimethyl-1H-pyrrol-2-ylmethylene)-4-methoxy-5H-pyrrol-2-yl]-indole-1-carboxylic acid 2,3-dihydroxy-propyl ester] were, in that order, 1.28 µM and 1.26 µM.
For `COC1=CC(c2cc3c(O)cccc3[nH]2)=N/C1=C\c1[nH]c(C)cc1C` [Compound 59, 2-[5-(3,5-Dimethyl-1H-pyrrol-2-ylmethylene)-4-methoxy-5H-pyrrol-2-yl]-1H-indol-4-ol], the concentration for half-maximal inhibition (IC50) stood at 5.84 µM in series [4] and 5.6 µM in series [5].
For the compound `COC1=CC(c2[nH]c3ccccc3c2I)=N/C1=C\c1[nH]c(C)c(I)c1C` [Compound 17, 3-Iodo-2-[5-(4-iodo-3,5-dimethyl-1H-pyrrol-2-ylmethylene)-4-methoxy-5H-pyrrol-2-yl]-1H-indole], the values for the IC50 in series [4] and in series [5] were 5.37 µM and 5.69 µM, respectively.
The like results for `COC1=CC(c2[nH]c3ccccc3c2CN2CCOCC2)=N/C1=C\c1[nH]c(C)cc1C` [Compound 6, 2-[5-(3,5-Dimethyl-1H-pyrrol-2-ylmethylene)-4-methoxy-5H-pyrrol-2-yl]-3-morpholin-4-ylmethyl-1H-indole] were, in that order, 0.267 µM and 0.19 µM.
The like results for `COC1=CC(c2cc3ccccc3n2C(=O)C(C)C)=N/C1=C\c1[nH]c(C)cc1C` [Compound 35, 1-{2-[5-(3,5-Dimethyl-1H-pyrrol-2-ylmethylene)-4-methoxy-5H-pyrrol-2-yI]-indol-1-yl}-2-methyl-propan-1-one] were, in that order, 0.197 µM and 0.167 µM.

For orientation: IC50 means the concentration that inhibits the measured activity by half.
